Reference: patent US4863899A, “Biologically active polypeptides” (priority 1987, dated 1989)
Read-outs that look alike come from different tables or passages of the source. Positions of bridges follow the written chain, without caps; N, C: chain ends. Residues, ends and D or L forms follow the SMILES beside them. No end group written: not given here.

Key:
[1] = test system: EGF-induced DNA synthesis in quiescent HFF; assay: Cell proliferation assay, inhibition of EGF-induced mitogenesis; assay type: cell-based, human; details: 3H-methylthymidine incorporation in quiescent HFF induced by 1 nM EGF
Experimental: (§1) HFF cells were grown to confluence in 48-well cluster dishes in DMEM-10% FCS and brought to quiescence by starvation for 2 days in DMEM-0.5% FCS. Mitogens and peptides were incubated with cells at 37° C. for 18 hours prior to a 4 hour pulse with 1 μCi [^3 H]methyl-thymidine (NEN) and trichloroacetic acid precipitable radioactivity was determined.

[2] = test system: TGFα-induced DNA synthesis in quiescent HFF; assay: Cell proliferation assay, inhibition of TGFα-induced mitogenesis; assay type: cell-based, human; details: 3H-methylthymidine incorporation in quiescent HFF induced by 1 nM TGFα
Experimental: as §1

anti-KLH-peptide 1 IgG = assay: Solid phase RIA, 125I anti-KLH-peptide 1 IgG on BSA-peptide 1; assay type: binding, rabbit
Experimental: TGF peptide 1 was coupled to keyhole limpet hemocyanin (KLH) or bovine serum albumin (BSA) by thiol/maleimide linkage (King et al. (1979) J. Immunol. Methods 28, pp. 201-206). Carrier-peptide complexes were purified by gel filtration. An average of 60 moles peptide/mole KLH and 20 moles peptide/mole BSA was achieved. Rabbits were immunized with the KLH-peptide 1 conjugate by multiple subcutaneous (s.c.) and intramuscular (i.m.) injections of 2 mg protein in complete Freund's adjuvant. Rabbits were boosted s.c. every two weeks with the immunogen in incomplete Freund's adjuvant. The IgG fraction of the antiserum after 5 boosts was used for immunoassays and radiolabeled using Na^125 I (NEN) and Enzymobeads (Bio-Rad) to 4×10^5 cpm/μg protein. Polyvinyl chloride 96-well plates (Costar) were coated with 200 μg/mL BSA-peptide 1 conjugate and countercoated with 10% normal rabbit serum in phosphate-buffered saline. Plates were incubated for 4 hours at 37° C. with [^125 I]anti-KLH-peptide 1 IgG (50,000 cpm/well) in the presence or absence of inhibitors, washed and individual wells were counted.

[3] = target: T1, EGF receptors on human foreskin fibroblasts (HFF) (Homo sapiens, UniProt P00533); assay: Radioreceptor assay, 125I-EGF binding to cells (Example XII)
T1 construct: human foreskin fibroblasts (HFF), established from primary cultures; endogenous in cells; host or cells: human foreskin fibroblasts (HFF), primary-culture derived
Experimental: (§2) A-431 human epidermoid carcinoma cells or human foreskin fibroblasts (HFF), established from primary cultures, were grown to confluence in 24-well cluster dishes (Costar) in Dulbecco's […] (DMEM, Gibco) containing 10% fetal calf serum (FCS, Hyclone). EGF was radio-iodinated as above to between 4×10^4 and 8×10^4 cpm/ng protein. Cells were incubated at 4° C. for 60 minutes with 1 nM [^125 I]EGF in the presence of inhibitor peptides in DMEM ([…]; 20 mM Hepes) containing 0.1% BSA. Cells were washed 3× with cold buffer, lysed with 0.1 N NaOH, and cell-associated radioactivity was measured (γ-counter). Nonspecific binding assessed in the presence of a 100× excess of cold EGF was less than 5% and 10% of the specific binding for A-431 and HFF cells, respectively.

[4] = target: T2, EGF receptors on A-431 human epidermoid carcinoma cells (Homo sapiens, UniProt P00533); assay: as above
T2 construct: A-431 human epidermoid carcinoma cells or human foreskin fibroblasts (HFF); endogenous in cells; host or cells: A-431 human epidermoid carcinoma cells
Experimental: as §2

[5] = test system: antiserum against peptide III; assay: Radioimmunoassay, inhibition of precipitation of 125I-peptide III; assay type: binding, rabbit; details: for Relative Inhibitory Activity: half-maximal inhibitory concentration relative to peptide III, standard RIA, > = highest concentration tested; for inhibition of precipitation of 125I-peptide III, in words: compared with peptide III
Experimental: Rabbits were immunized by subcutaneous injection of 1 mg of conjugate injected subcutaneously at four separate sites. Two booster injections were administered at bi-weekly intervals following the initial injection. The serum used in this study was collected eighty days after the initial injection. An immunoglobulin fraction of this serum was prepared by ammonium sulfate precipitation. The product of antibodies specific for immunizing peptide was monitored with a solid phase enzyme-linked immunoabsorbent assay.
Reactants were mixed in a final volume of 50 microliters of a solution containing: 20 mM sodium phosphate, at pH 7.4; 200 mM NaCl: 40 mM dithiothreitol; 0.1% (w:v) BSA; 0.1% (w:v) NaN3 : ^125 I-peptide III; (10^4 cpm); antiserum at a final dilution of 1/15,000; and other additions, as specified. The reaction was initiated by the addition of antiserum and continued at 23° C. for 90 minutes. An equal volume of 10% formalin-fixed Staphalococcus A (Pansorbin, Calbiochem) was then added and incubation was continued for an additional 30 minutes at 23° C. The immunoadsorbant was removed by sedimentation through a cushion of 10% (w:v) sucrose and the amount of bound ^125 I-peptide III was determined using a gamma counter. Under these conditions, approximately 25% of ^125 I-peptide was bound by antibody in the absence of competitor. The amount of bound peptide III was corrected for non-specific binding measured in the absence of antibody (less than 5% of the total) and expressed as a percentage of maximal binding. Concentrations of competitors were expressed as the amount of peptide III required to give an equivalent inhibition of precipitation.

second degree burns [6] = assay: Wound healing of second degree burns, planimetry (Example VII); assay type: in vivo, Yorkshire piglet; details: once a day, after 7 days
Experimental: Another experiment was performed to measure the effect of the analog of human TGF described above on the healing of second degree burns. The experimental conditions were similar to those described above. However, the following changes were made in the procedures. One Yorkshire piglet was anesthetized with Ketamine and each of 12 burns was made using the template for 11 seconds per burn. After each blister was removed, the wounds were treated once a day with one of the following:
After 7 days, the eschar was removed.

antibody to TGF peptide = assay type: binding; details: 125I-labeled TGF peptide
normal rat kidney cells = assay type: cell-based; details: on a ng equivalent basis
second degree burns [7] = assay: Wound healing test on second degree burns (Example VI); assay type: in vivo, piglets; details: Pig 3, right side, 9 days post-burn
fetal rat long bones = assay: Bone resorption in vitro, 45Ca release; assay type: cell-based
Experimental: Synthetic rat TGF was prepared as described above in Example V. Purity of the protein was confirmed by sodium dodecyl sulfate-polyacrylamide gel electrophoresis, amino acid analysis, and reverse phase high-performance liquid chromatography. The biological activity of TGF preparations and synthetic TGF was monitored by means of an EGF radioreceptor assay. (Todaro et al. (1976) Nature 264, 26.) Bone resorption was assessed by measuring the release of ^45 Ca from previously labeled fetal rat long bones. Pregnant rats at the 18th day of gestation were injected with 200 μCi of ^45 Ca. (Raisz (1975) J. Clin. Invest. 44, 103.) The mothers were killed on the 19th day of gestation, and the fetuses were removed. The mineralized shafts of the radii and ulnae were dissected free of surrounding tissue and cartilage and placed in organ culture. The bones were incubated in BGJb medium (Irvine Scientific) for 24 hours at 37° C. in a humidified atmosphere of 5 percent of CO2 and 95 percent air to allow for the exchange of loosely complexed ^45 Ca. The bones were then cultured for 48 to 120 hours in BGJb medium supplemented with 5 percent fetal calf serum (KC Biologicals) containing control or test substances. […] Statistical significance was determined with Student's t test for unpaired data.

[8] = 1 nM 125I-EGF, read-out: Binding IC50 (M) HFF
[9] = A-431 cells, read-out: IC50, inhibition of 125I-EGF binding

`CC(C)[C@@H]1NC(=O)CNC(=O)[C@H](C(C)C)NC(=O)[C@H](Cc2ccc(O)cc2)NC(=O)CNC(=O)[C@H](CO)NC(=O)[C@H](Cc2c[nH]cn2)NC(=O)[C@@H](N)CSSC[C@@H](C(=O)O)NC(=O)[C@H](CCCNC(=N)N)NC1=O` [Peptide 1] (H-CHSGYVGVRC-OH; disulfide 1-10) was tested, and the IC50 [1] was over 10000 nM, the IC50 [2] was over 10000 nM and the “inhibition of antibody reaction with BSA-TGF peptide” value (anti-KLH-peptide 1 IgG) was “inhibited in a concentration-dependent fashion”. The IC50 [3] was 6e-05 M, the IC50 [4] was 8e-05 M and the “inhibition of 125I-EGF binding to A-431 cells, in words” value ([4]; at >10^-6 M) was “partially inhibited”.

`CC(=O)N[C@H]1CSSC[C@@H](C(N)=O)NC(=O)[C@H](CCCNC(=N)N)NC(=O)[C@H](C(C)C)NC(=O)CNC(=O)[C@H](C(C)C)NC(=O)[C@H](Cc2ccc(O)cc2)NC(=O)CNC(=O)[C@H](CO)NC(=O)[C@H](Cc2c[nH]cn2)NC1=O` [Peptide 2] (Ac-CHSGYVGVRC-NH2; disulfide 1-10) was tested, and the IC50 [1] was 5000 nM, the IC50 [2] was 3000 nM and the IC50 [3, 8] was 2e-06 M. For the same compound, the “binding potency as % of EGF or TGF-α” value ([4]; A-431 cells) was “approximately 0.02%” and the IC50 [4, 9] was 4e-06 M.

“Ac-Cys-His-Ser-Gly-Tyr-Val-Gly-Ala-Arg-Cys-OMe (Ac-CHSGYVGARC-OMe; disulfide 1-10 (inferred)) [Peptide 3]” gave an IC50 [1] of 600 nM, an IC50 [2] of 500 nM and an IC50 [3, 8] of 3e-07 M. For the same compound, the IC50 ([4]; 1 nM 125I-EGF, read-out: Binding IC50 (M) A-431) was 4e-07 M, the “binding potency as % of EGF or TGF-α” value ([4]; A-431 cells) was about 0.2% and the IC50 [4, 9] was 4e-07 M.

“CHSGYVGVRC (cysteine pairing not given here) [Peptide II]” was tested, and the “highest concentration without inhibition of precipitation of 125I-peptide III” value [5] was over 1.1 µM and the “Relative Inhibitory Activity” value [5] was over 1500.

With “CHSGYVGVRCEHADLLA (cysteine pairing not given here) [Peptide III]” the “Relative Inhibitory Activity” value [5] was 1.

For VVSHFNKCPDSHT [Peptide I], the “inhibition of precipitation of 125I-peptide III, in words” value [5] was “ineffective as a competitor” and the “Relative Inhibitory Activity” value [5] was over 1500.

hEGF: Human EGF was tested, and the “PERCENTAGE OF WOUND HEALED Burn A” value (second degree burns [6]; 0.1 μg/ml in Silvadene) was 17 percentage, the “PERCENTAGE OF WOUND HEALED Burn B” value (second degree burns [6]; 0.1 μg/ml in Silvadene) was 14 percentage and the “PERCENTAGE OF WOUND HEALED Burn A” value (second degree burns [6]; 1 μg/ml in Silvadene) was 14 percentage. The “PERCENTAGE OF WOUND HEALED Burn B” value (second degree burns [6]; 1 μg/ml in Silvadene) was 17 percentage.

“synthetic rTGF: rat TGF of the formula of Example II made by stepwise solid-phase synthesis, purified to homogeneity” was tested, and the “inhibition of antibody reaction with BSA-TGF peptide” value (anti-KLH-peptide 1 IgG) was “slightly less”, the “antigen concentration for 50% displacement of antigen from antibody” value (antibody to TGF peptide) was 0.2-0.3 ng equivalents of EGF and the “colonies in soft agar” value (normal rat kidney cells) was 154 colonies. The “approximate percentage of burn epithelialized” value (from here on “approximate percentage”) (second degree burns [7]; 0.1 μg/ml in Silvadene) was 90%, the “approximate percentage” value (second degree burns [7]; 0.5 μg/ml in Silvadene) was 65% and the “approximate percentage” value (second degree burns [7]; 10 μg/ml in Silvadene) was 90%. For the same compound, the “bone resorption during the first 48 hours of bone culture” value (fetal rat long bones) was “no significant bone resorption”, the “effective concentrations for bone resorption compared with EGF” value (fetal rat long bones) was “about one order of magnitude less than EGF” and the “time required to stimulate bone resorption” value (fetal rat long bones) was “at least 72 hours”. For the same compound, the “concentrations that stimulated bone resorption” value (fetal rat long bones; three separate experiments (Example XIII)) was “greater than 2 ng EGF equivalents/ml”, the “concentrations that stimulated bone resorption” value (fetal rat long bones; three separate experiments (Example XIV)) was “greater than 2 ng of EGF equivalents per milliliter” and the “inhibition of precipitation of 125I-peptide III, in words” value [5] was “equally effective”.
